Laboratory results: patent US11655244B2, “Carbazole compounds and methods of use thereof” (GSNO Therapeutics, Inc, priority 2017, dated 2023)

Columns and labels:
[1] = tested on: Bleomycin-induced idiopathic pulmonary fibrosis model in male C57BL/6 mice; assay: Bleomycin-induced idiopathic pulmonary fibrosis model; type: in vivo; settings: 100 mg/kg, p.o., b.i.d., from day 14 to 28
Description: Compound 17 was made-up fresh every 4 days. A required amount of the test compound was weighed in a glass vial and the purity factor was calculated. A stock solution of 1 mg/ml (10 mg/kg) was made in distilled water (pH 8) and the subsequent 3 and 1 mg/kg doses (concentrations) were obtained by serial dilution of the 1 mg/ml stock solution. A clear and transparent solution was observed. Animals were dosed with Compound 17 at 1 mg/kg, 3 mg/kg and 10 mg/kg, i.p (intraperitoneal), once daily from day 14 to 28.
Pirfenidone was weighed in a glass vial and suspended in 0.5% methyl cellulose to obtain a 10 mg/ml formulation. A clear homogenous suspension was observed. Animals were dosed with Pirfenidone at 100 mg/kg, p.o., b.i.d., from day 14 to 28.

GSNOR enzyme [2] = target: T1, GSNOR enzyme (Homo sapiens, UniProt P11766); assay: GSNOR inhibition assay (rate of NADH consumption, 340 nm absorbance); type: biochemical; settings: Table 2b; test compound 20 uM; read-out: % GSNOR Inhibition at 20 uM
Description: The following compounds were also prepared based on the methods described herein, using the appropriate starting materials. Table 2a and Table 2b also provides the % GSNOR inhibition at 20 μM of compounds described herein. […] The buffer was 100 mM phosphate buffer (pH 7.4.) The rate of NADH consumption for each well was determined by ultraviolet spectroscopy. Plates were read on a Molecular Devices Spectra Max UV/Visible Spectrophotometer/plate reader and the change in 340 nm absorbance at 25° C. was recorded for each well at 10 sec intervals over the duration of the recording period (2˜5 minutes). The rate was measured from the linear portion of the curve. Final test compound concentration was 20 μM. The mean % inhibition from 3 test compound wells and 5 control wells was measured as the percentage of the mean no compound+enzyme−the mean no enzyme, no compound control.

IL-6 = assay: LPS/cytokine assay (mouse inflammation assay), IL-6; type: in vivo, CD-1 male mice; settings: CD-1 male mice; IP or IV; cytokine typically 6 hrs after LPS
Description: Table 2b also includes additional biological data of compounds described herein. The LPS/cytokine Assay was carried out in CD-1 male mice. The assay measured the level of various cytokines, including IL-6, IL-17, and IL-23, after induction by bacterial liposaccharide (LPS). Compounds were dosed by IP or IV routes of administration at varying times before and after LPS and the cytokine concentrations were measured at varying times, typically 6 hrs, after LPS by standard methods using ELISA kits.
BIOLOGICAL TESTING: Compounds 10 and 17 from Table 1 were tested in a mouse inflammation assay. Briefly, CD-1 mice were dosed with compound, 12 hrs before injecting mice I.P. with the potent cytokine inducer, bacterial lipopolysaccharide (LPS). The mice were euthanized 6 hrs after the LPS was injected and their serum prepared by standard methods. The concentration of IL-6 in the serum of each experimental animal was measured using an IL-6 ELISA kit from Enzo. The compounds tested were active.
This LPS/cytokine assay was carried out in healthy mice and measured the level of cytokine IL-6, IL-17, and 23 induction by LPS. Compounds are dosed (either orally (“p.o.”) or intravenously (“i.v.”) at varying times before and after LPS, and the cytokines are measured at varying times after LPS. The effect of the tested compounds (Table 5) on IL-6 release is shown in FIG. 7. The effect of the tested compounds (Table 6) on IL-17 an IL-23 release is shown in FIG. 11 and FIG. 12, respectively.

GSNOR enzyme [3] = target: T1, GSNOR enzyme; assay: GSNOR inhibition assay (rate of NADH consumption, 340 nm absorbance); type: biochemical; settings: Table 2b; read-out: IC50 Micromolar

T1 sequence (P11766 whole entry): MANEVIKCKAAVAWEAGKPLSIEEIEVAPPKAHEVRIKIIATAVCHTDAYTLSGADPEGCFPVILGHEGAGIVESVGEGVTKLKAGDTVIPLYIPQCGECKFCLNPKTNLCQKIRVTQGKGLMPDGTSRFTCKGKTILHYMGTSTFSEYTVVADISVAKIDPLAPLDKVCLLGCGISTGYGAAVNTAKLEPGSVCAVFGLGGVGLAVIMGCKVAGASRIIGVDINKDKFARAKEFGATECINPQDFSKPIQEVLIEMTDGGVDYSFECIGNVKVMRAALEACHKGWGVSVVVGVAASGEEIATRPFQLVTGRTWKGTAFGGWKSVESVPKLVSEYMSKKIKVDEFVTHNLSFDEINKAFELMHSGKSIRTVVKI

| inhibition at 20 µM (GSNOR enzyme [2]) | IC50 (GSNOR enzyme [3]) | SMILES | pulmonary fibrosis (Ashcroft score and percentage collagen proportionate area) vs disease control [1] | LPS/IL6 Lowest tested active (IL-6) |
| --- | --- | --- | --- | --- |
| – | – | Cc1ccc(=O)n(-c2ccccc2)c1 [Pirfenidone, reference compound] | notable mitigation of pulmonary fibrosis | – |
| 92.9% | < 1000 nM | N#CCCCCn1c2ccc(-n3ccnc3)cc2c2ccc(CCC(=O)O)cc21 [Compound 31] | – | 0.3 mg/kg |
